Results from US20230150980A1, “COLLAGEN 1 TRANSLATION INHIBITORS AND METHODS OF USE THEREOF” (Anima Biotech Inc., priority 2020, published 2023).

tested on: collagen 1; experiment: WI-38 collagen 1 inhibition assay (anti-Collagen I immunofluorescence); format: cell-based; conditions: cellular EC50, WI-38 human lung fibroblasts, values are LogEC50 classes;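 further: minus sign means inactive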
Method: WI-38 cells (ATCC® CCL-75™) were maintained in MEM EAGLE (NEAA) W. GLUTAMIN (Biological Industries, Cat. 06-1040-15-1A) containing 10% fetal bovine serum (FBS) and 1% Penicillin-Streptomycin Solution. To synchronize the cells (cell cycle synchronization) prior to induction of collagen synthesis, the cells were starved using DMEM-low glucose supplemented with 0.25% FBS for two hours and then without FBS for 24 hours. To induce collagen synthesis, the cells were treated with a collagen induction cocktail for the indicated time. Compounds were added with induction.
Cells in 96-well or 384-well plates were fixed for 20 min in 4% paraformaldehyde (PFA, ENCO, Cat. sc-281692). Following two washes with 1×PBS, cells were treated with hydrogen peroxide (Acros, Cat: 7722-84-1) for 10 minutes and then washed twice with 1×PBS. Cells were then incubated over-night at 4° C. with Anti-Collagen I (Sigma-Aldrich, Cat: C 2456) antibody and washed three times with 1×PBS. Cell were then incubated with a suitable secondary fluorescently-tagged antibody and nuclei stained with DAPI, for 1 hour, and then washed 3 times with 1×PBS.
Cell images were taken with Operetta (Perkin Elmer, USA), a wide-field fluorescence microscope at 20× magnification. After acquisition, the images were transferred to Columbus software (Perkin-Elmer) for image analysis. In Columbus, cells were identified by their nucleus, using the “Find Nuceli” module and cytoplasm was detected based on the secondary antibody channel. Subsequently, the fluorescent signal was enumerated in the identified cell region. Data was exported to a data analysis and visualization software, Tibco Spotfire, USA.

Structure (SMILES) | COL1 Efficacy (LogEC50)
Cc1ncnc(N2CCN(Cc3nc4ccc(C(F)(F)F)cc4[nH]3)CC2)c1C [Compound 201, 2-((4-(5,6-dimethylpyrimidin-4-yl)piperazin-1-yl)methyl)-6-(trifluoromethyl)-1H-benzo[d]imidazole] | +++ (+++: <−6)
Cc1ncnc(N2CCN(Cc3cc4ccccc4[nH]3)CC2)c1C [Compound 202, 2-((4-(5,6-dimethylpyrimidin-4-yl)piperazin-1-yl)methyl)-1H-indole] | +++ (+++: <−6)
FC(F)(F)c1ccc2nc(CN3CCN(c4ccncn4)CC3)[nH]c2c1 [Compound 203, 2-((4-(pyrimidin-4-yl)piperazin-1-yl)methyl)-6-(trifluoromethyl)-1H-benzo[d]imidazole] | ++ (++: −5 to −6)
FC(F)(F)c1ccc2nc(CN3CCN(c4ccncc4)CC3)[nH]c2c1 [Compound 209, 2-((4-(pyridin-4-yl)piperazin-1-yl)methyl)-6-(trifluoromethyl)-1H-benzo[d]imidazole] | + (+: >−5)
Cc1ncnc(N2CCN(Cc3cc4cc(Cl)ccc4[nH]3)CC2)c1C [Compound 210, 5-chloro-2-((4-(5,6-dimethylpyrimidin-4-yl)piperazin-1-yl)methyl)-1H-indole] | +++ (+++: <−6)
CCc1cncnc1N1CCN(Cc2nc3ccc(Cl)cc3[nH]2)CC1 [Compound 211, 6-chloro-2-((4-(5-ethylpyrimidin-4-yl)piperazin-1-yl)methyl)-1H-benzo[d]imidazole] | +++ (+++: <−6)
c1ccc2[nH]c(CN3CCN(c4ccncc4)CC3)cc2c1 [Compound 212, 2-((4-(pyridin-4-yl)piperazin-1-yl)methyl)-1H-indole] | +++ (+++: <−6)
c1ccc2[nH]c(CN3CCN(c4ccncn4)CC3)cc2c1 [Compound 213, 2-((4-(pyrimidin-4-yl)piperazin-1-yl)methyl)-1H-indole] | +++ (+++: <−6)
c1ccc(N2CCN(Cc3cc4ccccc4[nH]3)CC2)nc1 [Compound 216, 2-[[4-(2-pyridyl)piperazin-1-yl]methyl]-1H-indole] | + (+: >−5)
c1cncc(N2CCN(Cc3cc4ccccc4[nH]3)CC2)c1 [Compound 217, 2-[[4-(3-pyridyl)piperazin-1-yl]methyl]-1H-indole] | + (+: >−5)
c1cncc(CN2CCN(Cc3cc4ccccc4[nH]3)CC2)c1 [Compound 218, 2-[[4-(3-pyridylmethyl)piperazin-1-yl]methyl]-1H-indole] | + (+: >−5)
Cc1cc(N2CCN(Cc3cc4ccccc4[nH]3)CC2)ccn1 [Compound 221, 2-[[4-(2-methyl-4-pyridyl)piperazin-1-yl]methyl]-1H-indole] | −
Cc1cnccc1N1CCN(Cc2cc3ccccc3[nH]2)CC1 [Compound 222, 2-[[4-(3-methyl-4-pyridyl)piperazin-1-yl]methyl]-1H-indole] | ++ (++: −5 to −6)
FC(F)(F)c1cccnc1N1CCN(Cc2cc3ccccc3[nH]2)CC1 [Compound 225, 2-[[4-[3-(trifluoromethyl)-2-pyridyl]piperazin-1-yl]methyl]-1H-indole] | + (+: >−5)
CN1CCC(N2CCN(Cc3cc4ccccc4[nH]3)CC2)CC1 [Compound 227, 2-[[4-(1-methyl-4-piperidyl)piperazin-1-yl]methyl]-1H-indole] | −
c1ccc2[nH]c(CN3CCN(c4nccs4)CC3)cc2c1 [Compound 229, 2-[4-(1H-indol-2-ylmethyl)piperazin-1-yl]thiazole] | ++ (++: −5 to −6)
CCCN1CCN(Cc2cc3ccccc3[nH]2)CC1 [Compound 230, 2-[(4-propylpiperazin-1-yl)methyl]-1H-indole] | + (+: >−5)
O=C(c1cccnc1)N1CCN(Cc2cc3ccccc3[nH]2)CC1 [Compound 231, [4-(1H-indol-2-ylmethyl)piperazin-1-yl]-(3-pyridyl)methanone] | −

Structure (SMILES) | COL1 Efficacy (LogEC50)
O=C(C1CCCCC1)N1CCN(Cc2cc3ccccc3[nH]2)CC1 [Compound 232, Cyclohexyl-[4-(1H-indol-2-ylmethyl)piperazin-1-yl]methanone] | ++ (++: −5 to −6)
c1ccc2[nH]c(CN3CCN(C4CCCC4)CC3)cc2c1 [Compound 233, 2-[(4-cyclopentylpiperazin-1-yl)methyl]-1H-indole] | + (+: >−5)
c1ccc2[nH]c(CN3CCN(c4nccc5occc45)CC3)cc2c1 [Compound 235, 4-[4-(1H-indol-2-ylmethyl)piperazin-1-yl]furo[3,2-c]pyridine] | + (+: >−5)
c1ccc2[nH]c(CN3CCN(c4ccnc5ccccc45)CC3)cc2c1 [Compound 236, 4-[4-(1H-indol-2-ylmethyl)piperazin-1-yl]quinolone] | ++ (++: −5 to −6)
c1ccc2nc(N3CCN(Cc4cc5ccccc5[nH]4)CC3)ccc2c1 [Compound 237, 2-[4-(1H-indol-2-ylmethyl)piperazin-1-yl]quinolone] | ++ (++: −5 to −6)
Cc1cccnc1N1CCN(Cc2cc3ccccc3[nH]2)CC1 [Compound 238, 2-[[4-(3-methyl-2-pyridyl)piperazin-1-yl]methyl]-1H-indole] | ++ (++: −5 to −6)
CC(C)CC(=O)N1CCN(Cc2cc3ccccc3[nH]2)CC1 [Compound 239, 1-[4-(1H-indol-2-ylmethyl)piperazin-1-yl]-3-methyl-butan-1-one] | ++ (++: −5 to −6)
c1ccc2[nH]c(CN3CCN(c4ccc5cn[nH]c5c4)CC3)cc2c1 [Compound 286, 6-(4-((1H-indol-2-yl)methyl)piperazin-1-yl)-1H-indazole] | −
FC(F)(F)c1ccc2nc(CN3CCN(c4ccccc4)CC3)[nH]c2c1 [compound 200] | −
Cc1ncnc(N2CCN(Cc3[nH]c4ccc(Cl)cc4c3C)CC2)c1C [compound 204] | ++ (++: −5 to −6)
Cc1cc2c(N3CCN(Cc4nc5ccccc5[nH]4)CC3)ncnc2s1 [compound 205] | ++ (++: −5 to −6)
c1ccc(-c2nc3c(c(N4CCN(Cc5cc6ccccc6[nH]5)CC4)n2)CCC3)cc1 [compound 207] | ++ (++: −5 to −6)
c1ccc2[nH]c(CN3CCN(c4cc(-n5cccn5)ncn4)CC3)nc2c1 [compound 208] | ++ (++: −5 to −6)
CCc1cncnc1N1CCN(Cc2nc3ccc(C(F)(F)F)cc3[nH]2)CC1 [compound 214] | +++ (+++: <−6)
Brc1ccc2[nH]c(CN3CCN(c4ccncc4)CC3)cc2c1 [compound 215, 5-bromo-2-[[4-(4-pyridyl)piperazin-1-yl]methyl]-1H-indole] | −
c1ccc(-c2ccc3[nH]c(CN4CCN(c5ccncc5)CC4)cc3c2)cc1 [compound 219, 5-phenyl-2-[[4-(4-pyridyl)piperazin-1-yl]methyl]-1H-indole] | −
c1cncc(-c2ccc3[nH]c(CN4CCN(c5ccncc5)CC4)cc3c2)c1 [compound 220, 5-(3-pyridyl)-2-[[4-(4-pyridyl)piperazin-1-yl]methyl]-1H-indole] | −
COc1ccc2[nH]c(CN3CCN(c4ccncc4)CC3)cc2c1 [compound 223, 5-methoxy-2-[[4-(4-pyridyl)piperazin-1-yl]methyl]-1H-indole] | −
